Read-outs that look alike come from different tables or passages of the source.
Columns and labels:
S. hemolyticus = assay: MIC against S. hemolyticus; assay type: cell-based; conditions: Table 4, read-out: MIC
Method: (§1) The MRS inhibitor 4 alone and in combination with mupirocin (mupirocin salt and 1:1 combination) were tested against a collection of Gram-positive pathogens.
(§2) The MRS inhibitor 8 was also prepared as a fusidate and mupirocinate salt and tested for antibacterial activity against Gram-positive bacteria (Table 3). […] MRSi compound 8 alone and the fusidate and mupirocin salts were active against mupirocin-resistant S. aureus and S. epidermidis and organisms such as E. faecalis that are not susceptible to mupirocin.
(§3) The MRS inhibitor 5 acetate and mupirocin salts were tested against a collection of Gram-positive bacteria.

E. faecalis = assay: MIC against E. faecalis; assay type: cell-based; conditions: for Range (MIC): in µg/mL; for MIC: Enterococcus faecalis, read-out: MIC
S. aureus = assay: MIC against S. aureus strains and clinical isolates (broth microdilution); assay type: cell-based, Staphylococcus aureus; conditions: for MIC / MIC50 / MIC90: Staphylococcus aureus; for MIC50: read-out: MIC50; for MIC90: read-out: MIC90
Procedure, shortened: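 Broth microdilution per NCCLS in cation-supplemented Mueller-Hinton broth, final inoculum 5×10^5 CFU/ml from 0.5 McFarland suspensions diluted 1:10. Trays incubated aerobically overnight with quality control strains each run. Checkerboard FIC index: ≦0.5 synergy, >0.5 to 4 additive/indifferent, >4.0 antagonism.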

[1] = system: MRS-resistant mutants of S. aureus; assay: Susceptibility (MIC) of MRS-resistant mutants of S. aureus; assay type: cell-based; conditions: Staphylococcus aureus
Method: MRS-resistant mutants generated in vitro in either serial passage or spontaneous resistance development studies were evaluated for susceptibility to mupirocin alone and in a 1:1 combination with MRSi compound 5.

S. pyogenes = assay: MIC against S. pyogenes; assay type: cell-based, Streptococcus pyogenes; conditions: for MIC: Streptococcus pyogenes, Table 4, read-out: MIC
Method: as §1
S. pyogenes is also a significant skin pathogen and 48 recent clinical isolates were tested for their susceptibility to MRSi compound 5 alone (acetate) and in combination (1:1) with mupirocin (mupirocinate).

S. epidermidis = assay: MIC against S. epidermidis; assay type: cell-based; conditions: Staphylococcus epidermidis, Table 4, read-out: MIC
Method: as §1, §2, §3

[2] = recent clinical isolates of E. faecalis, ALL (28)
[3] = all S. aureus isolates of Table 6
[4] = oxacillin-resistant S. aureus, Oxa-R (42)
[5] = oxacillin-susceptible S. aureus, Oxa-S (20)
[6] = recent clinical isolates of S. aureus, All (62)
[7] = 48 recent clinical isolates of S. pyogenes

In the case of `C=C(F)c1sc(CNCCCNc2cc(=O)c3ccccc3[nH]2)c(C)c1Br` [MRSi Cmpd 5 acetate, N-(4-bromo-5-(1-fluorovinyl)-3-methylthiophen-2-ylmethyl)-N′-(1H-quinolin-4-one)propane-1,3-diamine], the MIC (S. hemolyticus; S. hemolyticus NRS50) is reported as 0.12 µg/mL, the MIC (S. hemolyticus; S. hemolyticus NRS116) is reported as 0.25 µg/mL and the MIC50 (E. faecalis; E. faecalis, Van-R(11)) is reported as under 0.004 µg/mL. For the same compound, the MIC90 (E. faecalis; E. faecalis, Van-R(11)) was 0.015 µg/mL, the Mode (MIC) (E. faecalis; E. faecalis, Van-R(11)) was under 0.004 µg/mL and the “Range (MIC)” value (E. faecalis; E. faecalis, Van-R(11)) was <0.004-0.015. For the same compound, the MIC50 (E. faecalis; E. faecalis, Van-S (16)) was “≦0.004”, the MIC90 (E. faecalis; E. faecalis, Van-S (16)) was 0.008 µg/mL and the “Mode (MIC)” value (E. faecalis; E. faecalis, Van-S (16)) was “≦0.004”. For the same compound, the “Range (MIC)” value (E. faecalis; E. faecalis, Van-S (16)) was <0.004-0.015, the MIC (E. faecalis; ATCC29212, Table 4, E. faecalis ATCC 29212) was 0.015 µg/mL and the MIC (E. faecalis; Table 4, E. faecalis 1) was 0.004 µg/mL. For the same compound, the MIC (E. faecalis; Table 4, E. faecalis 7) was 0.015 µg/mL, the MIC50 (E. faecalis; [2]) was under 0.004 µg/mL and the MIC90 (E. faecalis; [2]) was 0.015 µg/mL. The Mode (MIC) (E. faecalis; [2]) was under 0.004 µg/mL, the “Range (MIC)” value (E. faecalis; [2]) was <0.004-0.015 and the MIC (S. aureus; ATCC29213, Table 4, S. aureus ATCC 29213, read-out: MIC) was 0.06 µg/mL. The MIC (S. aureus; ATCC43300, Table 4, S. aureus ATCC 43300 (ORSA), read-out: MIC) was 0.25 µg/mL, the MIC (S. aureus; NRS 1 / VISA, VISA, S. aureus NRS1 (Mu50), read-out: MIC) was 0.015 µg/mL and the MIC (S. aureus; NRS 3 / VISA, VISA, S. aureus NRS3 (HIP5827), read-out: MIC) was 0.008 µg/mL. For the same compound, the MIC (S. aureus; NRS 4 / VISA, VISA, S. aureus NRS4 (HIP5836), read-out: MIC) was 0.008 µg/mL, the MIC (S. aureus; NRS 18 / VISA, VISA, S. aureus NRS18 (HIP06854), read-out: MIC) was 0.03 µg/mL and the MIC (S. aureus; NRS 24 / VISA, VISA, S. aureus NRS24 (HIP09143), read-out: MIC) was 0.06 µg/mL. For the same compound, the MIC (S. aureus; NRS 49 / VISA, VISA, S. aureus NRS49 (Korea), read-out: MIC) was 0.008 µg/mL, the MIC (S. aureus; NRS54, Table 6, high-level mupirocin-resistant S. aureus NRS54, read-out: MIC) was 0.06 µg/mL and the MIC (S. aureus; NRS 54 / VISA, VISA, S. aureus NRS54 (Brazil), read-out: MIC) was 0.06 µg/mL. For the same compound, the MIC (S. aureus; NRS 56 / VISA, VISA, S. aureus NRS56 (Brazil), read-out: MIC) was 0.008 µg/mL, the MIC (S. aureus; NRS107, Table 4, S. aureus NRS107 (mupA), read-out: MIC) was at most 0.008 µg/mL and the MIC (S. aureus; NRS107, Table 6, high-level mupirocin-resistant S. aureus NRS107, read-out: MIC) was at most 0.008 µg/mL. For the same compound, the MIC (S. aureus; NRS127, Table 6, low-level mupirocin-resistant S. aureus NRS127, read-out: MIC) was 0.5 µg/mL, the MIC (S. aureus; Table 6, S. aureus (mupirocin-susceptible) 010-100, read-out: MIC) was 0.03 µg/mL and the MIC (S. aureus; Table 6, S. aureus (mupirocin-susceptible) 087-2789, read-out: MIC) was 0.06 µg/mL. For the same compound, the MIC (S. aureus; Table 6, S. aureus (mupirocin-susceptible) LZ9, read-out: MIC) was 0.03 µg/mL, the MIC (S. aureus; Table 6, S. aureus (mupirocin-susceptible) LZ10, read-out: MIC) was 0.03 µg/mL and the MIC (S. aureus; Table 6, high-level mupirocin-resistant S. aureus 010-420, read-out: MIC) was 0.03 µg/mL. For the same compound, the MIC (S. aureus; Table 6, high-level mupirocin-resistant S. aureus 25-670, read-out: MIC) was 0.03 µg/mL, the MIC (S. aureus; Table 6, high-level mupirocin-resistant S. aureus 87-2797, read-out: MIC) was 0.03 µg/mL and the MIC (S. aureus; Table 6, high-level mupirocin-resistant S. aureus 1079101, read-out: MIC) was 0.06 µg/mL. It also gave an MIC (S. aureus; Table 6, high-level mupirocin-resistant S. aureus LZ1, read-out: MIC) of 0.015 µg/mL, an MIC (S. aureus; Table 6, high-level mupirocin-resistant S. aureus LZ6, read-out: MIC) of 0.06 µg/mL and an MIC (S. aureus; Table 6, low-level mupirocin-resistant S. aureus 014-354, read-out: MIC) of 0.015 µg/mL. The MIC (S. aureus; Table 6, low-level mupirocin-resistant S. aureus 031-1334, read-out: MIC) was 0.015 µg/mL, the MIC (S. aureus; Table 6, low-level mupirocin-resistant S. aureus 036-1298, read-out: MIC) was at most 0.008 µg/mL and the MIC (S. aureus; Table 6, low-level mupirocin-resistant S. aureus 1081148, read-out: MIC) was 0.5 µg/mL. It also gave an MIC (S. aureus; Table 6, low-level mupirocin-resistant S. aureus LZ8, read-out: MIC) of 0.03 µg/mL, an MIC (S. aureus; Table 6, low-level mupirocin-resistant S. aureus Miles Hall, read-out: MIC) of at most 0.008 µg/mL and an MIC (S. aureus; VISA, all 8 vancomycin-intermediate S. aureus (VISA) isolates, read-out: MICs ranging) of 0.008 to 0.25 µg/mL. It also gave an MIC50 (S. aureus; [3]) of 0.03 µg/mL, an MIC90 (S. aureus; [3]) of 0.5 µg/mL and an MIC50 (S. aureus; [4]) of 0.03 µg/mL. It also gave an MIC90 (S. aureus; [4]) of 0.5 µg/mL, an MIC (S. aureus; oxacillin-resistant S. aureus, Oxa-R (42), read-out: MIC Mode) of 0.03 µg/mL and an MIC50 (S. aureus; [5]) of 0.03 µg/mL. For the same compound, the MIC90 (S. aureus; [5]) was 0.06 µg/mL, the MIC (S. aureus; oxacillin-susceptible S. aureus, Oxa-S (20), read-out: MIC Mode) was 0.06 µg/mL and the MIC50 (S. aureus; [6]) was 0.03 µg/mL. The MIC90 (S. aureus; [6]) was 0.12 µg/mL, the MIC (S. aureus; recent clinical isolates of S. aureus, All (62), read-out: MIC Mode) was 0.06 µg/mL and the “MIC Range” value (S. aureus; [3]) was “≦0.008-0.5 μg/mL”. For the same compound, the “MIC Range” value (S. aureus; [4]) was “≦0.008 to 1 μg/mL”, the “MIC Range” value (S. aureus; [5]) was “≦0.008 to 0.12 μg/mL” and the “MIC Range” value (S. aureus; [6]) was “≦0.008 to 1 μg/mL”. It also gave an MIC ([1]; ATCC29213, S. aureus ATCC 29213, metS wild-type) of 0.06 µg/mL, an MIC ([1]; ATCC43300, S. aureus ATCC 43300, metS wild-type) of 0.06 µg/mL and an MIC ([1]; S. aureus SP-1A2, metS A247E) of 4 µg/mL. The MIC ([1]; S. aureus SP-1B5, metS I57N) was 8 µg/mL, the MIC ([1]; S. aureus SP-2B5, metS I57N, R100S) was 16 µg/mL and the MIC ([1]; S. aureus SP-2C4, metS L213W) was 4 µg/mL. It also gave an MIC ([1]; S. aureus SP-2D4, metS I57N) of 16 µg/mL, an MIC ([1]; S. aureus SP-9B5, metS I57N, V296F) of 4 µg/mL and an MIC ([1]; S. aureus SP-21A, metS A77V) of 4 µg/mL. The MIC ([1]; S. aureus SR1, metS I57N) was 4 µg/mL, the MIC50 (S. pyogenes; [7]) was 0.06 µg/mL and the MIC90 (S. pyogenes; [7]) was 0.12 µg/mL. The Mode (MIC) (S. pyogenes; [7]) was 0.06 µg/mL, the “MIC Range” value (S. pyogenes; 48 recent clinical isolates of S. pyogenes, in µg/mL) was 0.03 to 0.25 and the MIC (S. pyogenes; ATCC19615, S. pyogenes ATCC 19615) was 0.12 µg/mL. The MIC (S. pyogenes; S. pyogenes MB000143) was 0.12 µg/mL, the MIC (S. epidermidis; S. epidermidis NRS6) was 0.25 µg/mL and the MIC (S. epidermidis; S. epidermidis NRS7) was 0.06 µg/mL. It also gave an MIC (S. epidermidis; S. epidermidis NRS8) of 0.12 µg/mL.

— patent US20040224981A1, “Antibacterial methods and compositions” (priority 2003, published 2004)
